Here are results for eleven molecules from patent US10233165B2, “Cyclopropylamine compounds as histone demethylase inhibitors” (IEO—Instituto Europeo di Oncologia S.r.l., priority 2014, dated 2019).

Test [1] deals with Human leukemia MV4-11 cells. The test can be described thus: Cell growth, CellTiter-Fluor viability assay. The test is classed as cell-based. The settings on record: 48 h incubation, read-out: IC50 [μM] cell growth inhibitory assay. The text has this:
CellTiter-Flor® (Promega) is a nonlytic, single-reagent-addition fluorescence assay that measures the relative number of living cells in a culture population after experimental manipulation. The CellTiter-Fluor™ Cell Viability Assay measures the conserved and constitutive protease activity within live cells and therefore acts as a marker for cell viability.
Human leukemia MV4-11 cells, (obtained from the Deutsche Sammlung von Mikroorganismen and Zellkulturen, ACC 102) in exponential growth, were incubated for 48 h with different concentrations of the inhibitors (e.g. from 0 to 100 μM). After 48 h a volume of CellTiterFluor® Reagent equal to the volume of cell culture medium was added. The content was mixed and incubates for at least 90 min at 37° C. degree to obtain a stable signal. The fluorescence was recorded using an excitation wavelength of 360 nm and an emission at 535 nm. The IC50 was calculated using GraphPad Software.

In another test the target is T1, Human recombinant MAO A (Homo sapiens, UniProt P21397).
T1 construct: made in house; host or cells: Pichia pastoris
T1 sequence (P21397 1-527): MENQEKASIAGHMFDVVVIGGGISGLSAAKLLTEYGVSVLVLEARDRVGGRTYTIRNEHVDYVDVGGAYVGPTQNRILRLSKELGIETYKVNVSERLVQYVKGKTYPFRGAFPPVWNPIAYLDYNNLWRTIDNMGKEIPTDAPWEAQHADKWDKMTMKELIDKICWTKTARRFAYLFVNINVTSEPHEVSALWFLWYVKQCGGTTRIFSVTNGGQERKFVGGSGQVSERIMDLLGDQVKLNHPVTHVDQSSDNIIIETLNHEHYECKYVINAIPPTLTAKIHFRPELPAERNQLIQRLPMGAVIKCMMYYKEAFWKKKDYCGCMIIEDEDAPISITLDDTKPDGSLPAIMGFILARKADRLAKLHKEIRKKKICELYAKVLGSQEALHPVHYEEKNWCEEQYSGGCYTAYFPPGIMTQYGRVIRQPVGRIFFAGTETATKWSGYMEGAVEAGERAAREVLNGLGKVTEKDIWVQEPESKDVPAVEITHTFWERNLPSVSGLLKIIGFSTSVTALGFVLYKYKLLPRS
The test can be described thus: Bioluminescent-coupled assay for monoamine oxidases (MAO-Glo), MAO-A. The test is classed as biochemical. The note with it: for IC50 (MAO-A)/ IC50 (LSD1): ratio, 15 min preincubation of compound with enzyme. On the procedure: The MAO-Glo Assay from Promega (cat. V1402, Promega, Madison, Wis.) was used to measure the effect of inhibitors on MAO-A and MAO-B activity.
Human recombinant MAO A and MAO B were expressed in Pichia pastoris and purified as published (Binda C. et al. Proc. Natl. Acad. Sci. USA, 2003, 9750-9755). The assay was performed at RT in 50 μL (25 μL reaction solution+25 μL detection reagent) in 96 well half area white plates (cat. 3693, Corning, Corning, N.Y.). Luminescence was measured after 20 min incubation in the dark using a microplate reader (Infinite F200, Tecan Group, Switzerland) with an integration time of 0.25 s per well.
50 nM MAO-A or 125 nM MAO-B were incubated with five different inhibitor concentrations (from 0.004 μM to 100 μM) for 15 min at RT in Promega MAO Buffer or Promega MAO-B Buffer (MAO-Glo Assay kit, catalogue number V1402, Promega, Madison, Wis.). […] After 30 min of incubation the reaction was stopped with the Promega detection reagent. The experiments were carried out in duplicate. IC50 was calculated using GraphPad Prism version 4.0 (GraphPad Software, San Diego, Calif.).

Test [2] deals with T2, human recombinant KDM1A (LSD1)/CoRest complex (Homo sapiens, UniProt O60341).
T2 construct: made in house; host or cells: E. coli
As to the kind of experiment: Assay of enzyme inhibition of KDM1A (LSD1), Amplex UltraRed/peroxidase. The test is classed as biochemical. The note with it: result in words. On the procedure: The complex of human recombinant KDM1A (LSD1)/CoRest protein was produced in E. coli as separate proteins and co-purified following previously reported procedures (Forneris F. et al. Trends Biochem. Sci. 2008, 33, 181-189; Forneris F. et al. J. Biol. Chem. 2007, 282, 20070-20074). The experiments were performed using a mono-methylated H3-K4 peptide containing 21 amino acids (custom synthesis done by Thermo Scientific) as substrate and in 50 mM TRIS, pH 8.0 and 0.05 mg/ml BSA. The peptide purity was >90% as checked by analytical high-pressure liquid chromatography and mass spectrometry.
The demethylase activity was estimated under aerobic conditions and at RT by measuring the release of H2O2 produced during the catalytic process by the Amplex® UltraRed detection system coupled with peroxidase assay. […] The conversion of the Amplex® Ultra Red reagent to resorufin was monitored in continuous by fluorescence (excitation at 540 nm, emission at 590 nm) using a microplate reader (Infinite 200, Tecan). […] The maximum demethylase activity of KDM1A/CoRest was obtained in the absence of inhibitors and corrected for background fluorescence in the absence of KDM1A/CoRest. The IC50 was calculated using GraphPad Software.

Test [3] has as its system CD14 mRNA in THP-1 cells. The test can be described thus: THP-1 target modulation, CD14 mRNA by quantitative RT-PCR. The note with it: 0.1 μM inhibitor, 5 days, normalized against TBP mRNA. The test is classed as cell-based, human. On the procedure:
(§1) For this scope THP-1 cells (ACC 16: DSMZ Leibniz Institute DSMZ German collection of Microorganism and cell culture) were plated at cellular density of 50.000 cells/mL and were incubated with the inhibitor at a fixed concentration of 0.1 μM for 5 days. Then, the cells were recovered and mRNA extracted to follow mRNA levels of the macrophage-specific genes CD14. mRNA expression was measured by quantitative RT-PCR (Fast SYBR Green Master mix, Applied Biosystems Foster City, Calif.) using specific primers and normalized against TBP mRNA. […] Primers used in this study were: […]

The test system of another test is human THP-1 cells. As to the kind of experiment: THP-1 methylcellulose assay, colony formation. The test is classed as cell-based. The note with it: 500 nM inhibitor, 13 days, versus vehicle; for inhibition at 0.5 µM: Homo sapiens, THP-1, 312 h. How it is done:
The KDM1A inhibitors were tested for their anti-clonogenic potential on human THP-1 cells (ACC 16: DSMZ Leibniz Institute DSMZ German collection of Microorganism and cell culture).
(§2) THP-1 cells were plated at a density of 250 cells per plate and cultured with the inhibitors at a fixed dose of 500 nM in MethoCult™ H4435 Enriched medium (StemCell Technologies, Vancouver, BC) for 13 days according to the manufacturer instructions. Then, the colony forming potential was scored by direct visualization using an inverted microscope and the percentage of inhibition over the vehicle was assessed. In addition, the cells were harvested and compounds-induced maturation was monitored by changes in the mRNA levels of macrophage-specific genes (CD14) as reported above.

For test [4], the system named is CD14 mRNA in THP-1 cells. As to the kind of experiment: THP-1 methylcellulose assay, CD14 mRNA in harvested cells. It is filed as cell-based, human. The settings on record: THP-1 cells harvested from methylcellulose, 500 nM inhibitor, 13 days. How it is done:
as §1, §2

SMILES strings stand for the structures. Where a name gives a salt, the structure may show the parent alone. Read-outs that look alike come from different tables or passages of the source.

What is called IC50 is the point on the concentration scale where inhibition reaches its midpoint. Regarding `N[C@@H]1C[C@H]1c1ccc(NC(=O)c2ccc(N3CCOCC3)c(NC(=O)OCc3ccccc3)c2)cc1` (relative stereo) [Example 9, Benzyl N-[5-[[4-[trans-2-aminocyclopropyl]phenyl]carbamoyl]-2-morpholino-phenyl]carbamate hydrochloride], in test [1] (Homo sapiens), the IC50 is ≤ 5 µM. For the same molecule, on Human recombinant MAO A, the “IC50 (MAO-A)/ IC50 (LSD1)” value is recorded as 3.17.

Regarding `N[C@@H]1C[C@H]1c1ccc(NC(=O)c2ccc(-c3ccccc3)cc2)cc1` (relative stereo) [Example 5e, N-[4-[trans-2-aminocyclopropyl]phenyl]-4-phenyl-benzamide, reference compound], in test [2], the “activity on KDM1A (LSD1)” value is “inactive”. Besides, the IC50 was ≤ 5 µM in test [1] (Homo sapiens) and 0.054 µM at Human recombinant MAO A (50 nM MAO-A, 15 min preincubation, read-out: MAO-A inhibition IC50). The “Target modulation CD14 mRNA expression (fold increase versus vehicle)” value in the test on CD14 mRNA in THP-1 cells [3] was 2.2 fold increase versus vehicle.

The inhibition is the share of the control response that was lost under treatment. Read a high inhibition as strong suppression. As for `N[C@@H]1C[C@H]1c1ccc(NC(=O)c2cccc(N3CCOC3=O)c2)cc1` (relative stereo) [Example 3, N-[4-[trans-2-aminocyclopropyl]phenyl]-3-(2-oxooxazolidin-3-yl)benzamide hydrochloride], the IC50 in test [1] (Homo sapiens) is ≤ 5 µM. Further, the “IC50 (MAO-A)/ IC50 (LSD1)” value at Human recombinant MAO A (hydrochloride) worked out at 3.30. In addition, the “Target modulation CD14 mRNA expression (fold increase versus vehicle)” value in the test with CD14 mRNA in THP-1 cells [3] (hydrochloride) is given as 21.2 fold increase versus vehicle. The molecule also gave an inhibition at 0.5 µM with human THP-1 cells of 41%. Moreover, in the test with CD14 mRNA in THP-1 cells [4] (hydrochloride), the “Colony formation Target Modulation CD14 mRNA expression (Fold increase)” value was 24.8 Fold increase.

Turning to `N[C@@H]1C[C@H]1c1ccc(NC(=O)c2ccc(N3CCOC3=O)cc2)cc1` (relative stereo) [Example 5, N-[4-[trans-2-aminocyclopropyl]phenyl]-4-(2-oxooxazolidin-3-yl)benzamide Hydrochloride], in test [1] (Homo sapiens), the IC50 lay within 5 to 50 µM.

For `N[C@@H]1C[C@H]1c1ccc(NC(=O)c2ccccc2)cc1` (relative stereo) [Example 5b, N-[4-[trans-2-aminocyclopropyl]phenyl]benzamide, reference compound], the IC50 in test [1] (Homo sapiens) is 50 to 100 µM. At Human recombinant MAO A, the “IC50 (MAO-A)/ IC50 (LSD1)” value worked out at 1.56.

As to `N[C@@H]1C[C@H]1c1ccc(NC(=O)c2ccc(N3CCCCC3)c(NC(=O)OCc3ccccc3)c2)cc1` (relative stereo) [Example 8, Benzyl N-[5-[[4-[trans-2-aminocyclopropyl]phenyl]carbamoyl]-2-(1-piperidyl)phenyl]carbamate Hydrochloride], the IC50 in test [1] (Homo sapiens) is ≤ 5 µM.

`CN1CCN(c2ccc(C(=O)Nc3ccc([C@@H]4C[C@H]4N)cc3)cc2NC(=O)OCc2ccccc2)CC1` (relative stereo) [Example 7, Benzyl N-[5-[[4-[(trans-2-aminocyclopropyl]phenyl]carbamoyl]-2-(4-methylpiperazin-1-yl)phenyl]carbamate Dihydrochloride]: in test [1] (Homo sapiens), the IC50 is ≤ 5 µM. For the same molecule, the “IC50 (MAO-A)/ IC50 (LSD1)” value on Human recombinant MAO A is recorded as 11.2.

For the molecule `CN1CCN(c2cc(C(=O)Nc3ccc([C@@H]4C[C@H]4N)cc3)ccc2NC(=O)OCc2ccccc2)CC1` (relative stereo) [Example 6, Benzyl N-[4-[[4-[trans-2-aminocyclopropyl]phenyl]carbamoyl]-2-(4-methylpiperazin-1-yl)phenyl]carbamate Dihydrochloride], the IC50 in test [1] (Homo sapiens) is ≤ 5 µM. Also, the “IC50 (MAO-A)/ IC50 (LSD1)” value on Human recombinant MAO A is reported as 15.3. In addition, in the test with CD14 mRNA in THP-1 cells [3], the “Target modulation CD14 mRNA expression (fold increase versus vehicle)” value is listed as 13 fold increase versus vehicle.

For `N[C@@H]1C[C@H]1c1ccc(NC(=O)c2ccc(N3CCOCC3)cc2)cc1` (relative stereo) [Example 4, N-[4-[trans-2-aminocyclopropyl]phenyl]-4-morpholino-benzamide Hydrochloride], the IC50 in test [1] (Homo sapiens) lay in the range of 5 to 50 µM.

As to `N[C@H]1C[C@@H]1c1ccc(NC(=O)c2cccc(N3CCOC3=O)c2)cc1` [Example 13, N-[4-[(1R,2S)-2-aminocyclopropyl]phenyl]-3-(2-oxooxazolidin-3-yl)benzamide Hydrochloride], in test [1] (Homo sapiens), the IC50 is ≤ 5 µM. Moreover, at Human recombinant MAO A, the “IC50 (MAO-A)/ IC50 (LSD1)” value amounted to 2.67. Moreover, the “Target modulation CD14 mRNA expression (fold increase versus vehicle)” value in the test with CD14 mRNA in THP-1 cells [3] is 3.1 fold increase versus vehicle. For the same molecule, the inhibition at 0.5 µM in the test with human THP-1 cells came to 19%. Also, the “Colony formation Target Modulation CD14 mRNA expression (Fold increase)” value with CD14 mRNA in THP-1 cells [4] came to 6 Fold increase.

On to `N[C@@H]1C[C@H]1c1ccc(NC(=O)c2cccc(N3CCOC3=O)c2)cc1` [Example 11, N-[4-[(1S,2R)-2-aminocyclopropyl]phenyl]-3-(2-oxooxazolidin-3-yl)benzamide Hydrochloride], for which the IC50 in test [1] is ≤ 5 µM. Besides, the “IC50 (MAO-A)/ IC50 (LSD1)” value on Human recombinant MAO A (hydrochloride) was 5.93. For the same molecule, the “Target modulation CD14 mRNA expression (fold increase versus vehicle)” value in the test with CD14 mRNA in THP-1 cells [3] (hydrochloride) was 15.1 fold increase versus vehicle. Besides, the “Colony formation % of Inhibition” value in the test with human THP-1 cells (Hydrochloride, 0.5 µM) came to 36.3%. Also, the “Colony formation Target Modulation CD14 mRNA expression (Fold increase)” value with CD14 mRNA in THP-1 cells [4] (hydrochloride) is 27.7 Fold increase.
